Common to all, as to format: biochemical
The target in one assay is B-Raf(V599E) kinase (Homo sapiens, UniProt P15056, V600E). As to the kind of experiment: B-Raf(V599E) kinase assay B1 (construct 1, MEK1 substrate, coupled spectrophotometric). The protocol:
The test compounds were incubated with the reaction mixtureat 30° C. for 2 h. […] The reaction rate was calculated using the […] time frame. […] IC50 values were calculated from a series of percent inhibition values determined at a range of inhibitor concentrations using software routines as implemented in the GraphPad Prism software package.

A further assay concerns the target KDR kinase (Homo sapiens, UniProt P35968, DEL940-989/E990V). The assay can be described thus: KDR kinase assay K1 (pyruvate kinase/lactate dehydrogenase coupled, spectrophotometric). Particulars: Method K1; read-out: KDR Data (IC50). The protocol:
(§1) IC50 values were calculated from a series of percent inhibition values determined at a range of inhibitor concentrations using software routines as implemented in the GraphPad Prism software package.

Assay [1] addresses phosphorylated p-38-alpha kinase (Homo sapiens, UniProt Q16539). The assay can be described thus: P-38 alpha kinase assay P1 (coupled spectrophotometric, 2 h pre-incubation). Particulars: method P1 (2 h pre-incubation); read-out: P-38 Data.
The target in another assay is T1, Abl kinase (Homo sapiens, UniProt P00519).
T1 sequence (P00519 229-512): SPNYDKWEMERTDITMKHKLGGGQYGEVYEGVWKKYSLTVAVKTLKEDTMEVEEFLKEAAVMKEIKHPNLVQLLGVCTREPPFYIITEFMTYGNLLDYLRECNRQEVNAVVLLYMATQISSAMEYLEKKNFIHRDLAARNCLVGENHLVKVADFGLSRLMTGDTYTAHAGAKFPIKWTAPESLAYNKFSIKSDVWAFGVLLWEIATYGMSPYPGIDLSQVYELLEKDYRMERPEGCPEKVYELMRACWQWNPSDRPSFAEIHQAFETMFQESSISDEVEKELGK
The assay can be described thus: Abl kinase assay A1 (pyruvate kinase/lactate dehydrogenase coupled, spectrophotometric). Particulars: Method A1; read-out: Abl Data (IC50). The protocol:
as §1

Sequence of B-Raf(V599E) kinase (P15056 with tags, fused parts or gaps V600E): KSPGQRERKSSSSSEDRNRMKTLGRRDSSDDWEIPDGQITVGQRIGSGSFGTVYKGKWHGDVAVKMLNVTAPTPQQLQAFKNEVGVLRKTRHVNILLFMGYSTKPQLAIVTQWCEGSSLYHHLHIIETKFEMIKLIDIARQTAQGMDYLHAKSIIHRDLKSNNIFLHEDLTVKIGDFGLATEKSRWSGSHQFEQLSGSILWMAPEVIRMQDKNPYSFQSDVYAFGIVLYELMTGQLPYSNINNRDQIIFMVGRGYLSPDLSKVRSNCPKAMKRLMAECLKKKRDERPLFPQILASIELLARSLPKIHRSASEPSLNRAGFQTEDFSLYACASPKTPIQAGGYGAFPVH
Sequence of phosphorylated p-38-alpha kinase (Q16539 1-360 isoform Q16539-2): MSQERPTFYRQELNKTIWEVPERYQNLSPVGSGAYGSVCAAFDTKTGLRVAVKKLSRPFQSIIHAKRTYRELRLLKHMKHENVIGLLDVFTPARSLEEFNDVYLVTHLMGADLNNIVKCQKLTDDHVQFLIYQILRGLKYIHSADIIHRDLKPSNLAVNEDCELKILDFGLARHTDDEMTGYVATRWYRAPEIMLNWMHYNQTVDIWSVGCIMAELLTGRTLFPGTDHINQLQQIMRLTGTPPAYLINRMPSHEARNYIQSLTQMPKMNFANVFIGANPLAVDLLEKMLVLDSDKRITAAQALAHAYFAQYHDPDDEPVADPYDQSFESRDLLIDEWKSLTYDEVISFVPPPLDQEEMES
Sequence of KDR kinase (P35968 with tags, fused parts or gaps DEL940-989/E990V): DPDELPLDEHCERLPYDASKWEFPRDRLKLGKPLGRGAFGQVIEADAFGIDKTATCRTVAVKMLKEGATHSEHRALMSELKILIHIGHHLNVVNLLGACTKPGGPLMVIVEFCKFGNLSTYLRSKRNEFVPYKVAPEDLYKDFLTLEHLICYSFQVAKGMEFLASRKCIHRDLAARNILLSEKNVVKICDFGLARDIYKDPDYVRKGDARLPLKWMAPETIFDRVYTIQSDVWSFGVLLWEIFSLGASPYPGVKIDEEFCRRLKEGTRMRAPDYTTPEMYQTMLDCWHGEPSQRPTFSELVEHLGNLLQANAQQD

Turning to `CC1(O)CCN(C(=O)Cc2ccc(-n3nc(C(C)(C)C)cc3NC(=O)Nc3cccc(Cl)c3Cl)cc2)CC1` [Example 496, 1-(3-t-butyl-1-{4-[2-(4-hydroxy-4-methylpiperidin-1-yl)-2-oxoethyl]phenyl}-1H-pyrazol-5-yl)-3-(2,3-dichlorophenyl)urea], the IC50 on B-Raf(V599E) kinase is 0.026 µM; at KDR kinase it was 0.47 µM; in assay [1], 0.005 µM.

Turning to `CNC(=O)[C@@H]1Cc2ccc(-n3nc(C(C)(C)C)cc3NC(=O)Nc3cccc(Cl)c3Cl)cc2CN1` [Example 187, 1-(3-t-butyl-1-((3S)-3-(methylcarbamoyl)-1,2,3,4-tetrahydroisoquinolin-7-yl)-1H-pyrazol-5-yl)-3 (2,3-dichlorophenyl)urea], the IC50 was 0.56 µM at Abl kinase, 0.003 µM against B-Raf(V599E) kinase and 0.15 µM at KDR kinase.

Take `CC(C)(C)c1cc(NC(=O)Nc2cccc(Cl)c2Cl)n(-c2ccc3c(c2)CN(C(=N)N)CC3)n1` [Example 130, 1-[3-t-butyl-1-(2-carbamimidoyl-1,2,3,4-tetrahydroisoquinolin-7-yl)-1H-pyrazol-5-yl]-3-(2,3-dichlorophenyl)urea]: the values for the IC50 at Abl kinase and at KDR kinase were 0.23 µM and 0.32 µM, respectively.

For `COc1cccc(-n2nc(C(C)(C)C)cc2NC(=O)Nc2cccc(Cl)c2Cl)c1` [Example 15, 1-(3-t-butyl-1-(3-methoxyphenyl)-1H-pyrazol-5-yl)-3-(2,3-dichlorophenyl)urea], the IC50 worked out at 0.39 µM on Abl kinase, 0.0033 µM against B-Raf(V599E) kinase and 0.081 µM at KDR kinase.

For the compound `CC(C)(C)c1cc(NC(=O)Nc2ccc(Cl)cc2)n(-c2cc(CO)c3ccccc3c2)n1` [Example 61], the IC50 on Abl kinase worked out at 0.81 µM; against B-Raf(V599E) kinase, 0.018 µM; on KDR kinase, 1.5 µM.

Regarding `CC(C(N)=O)c1ccc(-n2nc(C(C)(C)C)cc2NC(=O)Nc2cccc(Cl)c2Cl)cc1` (stereo not shown) [Example 203, 1-(1-(4-(1-amino-1-oxopropan-2-yl)phenyl)-3-t-butyl-1H-pyrazol-5-yl)-3-(2,3-dichlorophenyl)urea], the IC50 on KDR kinase came to 0.16 µM; in assay [1], 0.017 µM.

For `CC(C)(C)c1cc(NC(=O)Nc2cccc(Cl)c2Cl)n(-c2ccc(CC(=O)O)cc2)n1` [Example 383], the IC50 turned out to be 0.0081 µM on B-Raf(V599E) kinase, 0.28 µM on KDR kinase and 0.007 µM in assay [1].

Turning to `CC(C)(C)c1cc(NC(=O)Nc2cccc(Oc3ccccc3)c2)n(-c2ccc3c(c2)CCNC3)n1` [Example 140, 1-(3-t-butyl-1-(1,2,3,4-tetrahydro-isoquinolin-6-yl)-1H-pyrazol-5-yl)-3-(3-phenoxyphenyl)urea], the IC50 came out at 0.12 µM at Abl kinase, 0.0046 µM against B-Raf(V599E) kinase and 2.3 µM on KDR kinase.

Regarding `CN(C)CCc1cccc(-n2nc(C(C)(C)C)cc2NC(=O)Nc2cccc(Cl)c2Cl)c1` [Example 40, 1-(3-t-butyl-1-{3-[2-(dimethylamino)ethyl]phenyl}-1H-pyrazol-5-yl)-3-(2,3-di-chlorophenyl)urea], the IC50 came out at 0.57 µM at Abl kinase, 0.0087 µM on B-Raf(V599E) kinase and 0.47 µM at KDR kinase.

Regarding `CNC(=O)C1NCCc2cc(-n3nc(C(C)(C)C)cc3NC(=O)Nc3cccc(Cl)c3Cl)ccc21` (stereo not shown) [Example 204, 1-(3-t-butyl-1-(1-(methylcarbamoyl)-1,2,3,4-tetrahydroisoquinolin-6-yl)-1H-pyrazol-5-yl)-3-(2,3-dichlorophenyl)urea], the figures for the IC50 (at KDR kinase; in assay [1]) were 0.099 µM and 0.009 µM, respectively.

Consider `CC(C)(C)c1cc(NC(=O)Nc2cccc(Cl)c2Cl)n(-c2cccc(CN)c2)n1` [Example 42, 1-{1-[3-(aminomethyl)phenyl]-3-t-butyl-1H-pyrazol-5-yl}-3-(2,3-dichloro-phenyl)urea], for which the IC50 at Abl kinase stood at 1.5 µM; against B-Raf(V599E) kinase, 0.01 µM; on KDR kinase it was 0.36 µM.

`CC(C)(C)c1cc(NC(=O)Nc2cccc(Cl)c2Cl)n(-c2ccc(CO)cc2)n1` [Example 19, 1-{3-t-butyl-1-[4-(hydroxymethyl)-phenyl]-1H-pyrazol-5-yl}-3-(2,3-dichlorophenyl)urea]: the IC50 on Abl kinase was 0.62 µM; on B-Raf(V599E) kinase, 0.0048 µM; at KDR kinase it was 0.71 µM.

In the case of `CC(C)(C)c1cc(NC(=O)Nc2cccc(Cl)c2Cl)n(-c2cccc(CCN)c2)n1` [Example 39, 1-{1-[3-(2-aminoethyl)phenyl]-3-t-butyl-1H-pyrazol-5-yl}-3-(2,3-dichlorophenyl)urea], the IC50 on Abl kinase worked out at 0.35 µM; on B-Raf(V599E) kinase it was 0.0071 µM; at KDR kinase it was 0.24 µM.

For `CC(C)(C)c1cc(NC(=O)Nc2cccc(Cl)c2Cl)n(-c2cccc(C#N)c2)n1` [Example 9], the IC50 at Abl kinase came to 0.18 µM; against B-Raf(V599E) kinase, 0.0046 µM; at KDR kinase it was 0.047 µM.

For the compound `CC(C)(C)c1cc(NC(=O)Nc2cccc(Cl)c2Cl)n(-c2ccc3c(c2)CCN(S(C)(=O)=O)CC3)n1` [Example 336, 1-(3-t-butyl-1-(3-(methylsulfonyl)-2,3,4,5-tetrahydro-1H-benzo[d]azepin-7-yl)-1 H-pyrazol-5-yl)-3-(2,3-dichlorophenyl)urea], the figures for the IC50 (at B-Raf(V599E) kinase; at KDR kinase; in assay [1]) were 0.002 µM, 0.17 µM and 0.011 µM, respectively.

Regarding `CC(C)(C)c1cc(NC(=O)Nc2cccc(Cl)c2Cl)n(-c2ccc3c(c2)CCN3S(=O)(=O)C(F)(F)F)n1` [Example 201, 1-(3-t-butyl-1-(1-(trifluoromethylsulfonyl)indolin-5-yl)-1H-pyrazol-5-yl)-3-(2,3-dichlorophenyl)urea], the IC50 on KDR kinase is 0.13 µM; in assay [1], 0.15 µM.

For the compound `COc1ccc(-n2nc(C(C)(C)C)cc2NC(=O)Nc2cccc(F)c2F)cc1` [Example 241, 1-[3-t-butyl-1-(4-methoxyphenyl)-1H-pyrazol-5-yl]-3-(2,3-difluorophenyl)urea], the IC50 at B-Raf(V599E) kinase was found to be 0.024 µM; on KDR kinase, 0.57 µM; in assay [1], 0.22 µM.

Consider `CC(C)(C)c1cc(NC(=O)Nc2cccc(Cl)c2Cl)n(-c2cccc(C(=N)NO)c2)n1` [Example 43, 1-{1-[3-(N-hydroxycarbamimidoyl)phenyl]-3-t-butyl-1H-pyrazol-5-yl}-3-(2,3-dichlorophenyl)-urea], for which the results for the IC50 (at B-Raf(V599E) kinase; on KDR kinase; in assay [1]) were 0.0043 µM, 0.36 µM and 0.013 µM, respectively.

On to `CC(C)(C)c1cc(NC(=O)Nc2ccc(Oc3ccccc3)cc2)n(-c2ccc3c(c2)CCNC3)n1` [Example 143, 1-(3-t-butyl-1-(1,2,3,4-tetrahydroiso-quinolin-6-yl)-1H-pyrazol-5-yl)-3-(4-phenoxyphenyl)-urea], for which the IC50 at Abl kinase is 0.25 µM; against B-Raf(V599E) kinase it was 0.014 µM; at KDR kinase it was 0.94 µM.

As to `CC(C(=O)O)c1ccc(-n2nc(C(C)(C)C)cc2NC(=O)Nc2cccc(Cl)c2Cl)cc1` (stereo not shown) [Example 202, 2-(4-(3-t-butyl-5-(3-(2,3-dichlorophenyl)ureido)-1H-pyrazol-1-yl)phenyl)propanoic acid], the figures for the IC50 (at KDR kinase; in assay [1]) were 0.23 µM and 0.012 µM, respectively.

For the compound `CC(C)(C)c1cc(NC(=O)Nc2cccc(Cl)c2Cl)n(-c2ccc3c(c2)CC(C(=O)O)NC3)n1` (stereo not shown) [Example 205], the IC50 at KDR kinase amounted to 0.28 µM; in assay [1], 0.029 µM.

For the compound `CC(C)(C)c1cc(NC(=O)Nc2cccc(Cl)c2Cl)n(-c2ccc3c(c2)CCN3)n1` [Example 106, 1-(3-t-butyl-1-(indolin-5-yl)-1H-pyrazol-5-yl)-3-(2,3-dichlorophenyl)urea], the IC50 on B-Raf(V599E) kinase is 0.0036 µM; on KDR kinase, 0.12 µM; in assay [1], 0.012 µM.

Turning to `CCOC(=O)CCc1cccc(-n2nc(C(C)(C)C)cc2NC(=O)Nc2cccc(Cl)c2Cl)c1` [Example 264, 3-(3-{3-t-butyl-5-[3-(2,3-dichlorophenyl)ureido]-1H-pyrazol-1-yl}phenyl)propionic acid ethyl ester], the IC50 on B-Raf(V599E) kinase was found to be 0.0073 µM; on KDR kinase, 0.14 µM; in assay [1], 0.082 µM.

On to `CC(Cc1cccc(-n2nc(C(C)(C)C)cc2NC(=O)Nc2cccc(Cl)c2Cl)c1)C(=O)O` (stereo not shown) [Example 267, 3-(3-{3-t-butyl-5-[3-(2,3-dichlorophenyl)ureido]-1H-pyrazol-1-yl}-phenyl)-2-methylpropanoic acid], for which the IC50 on B-Raf(V599E) kinase is 0.0079 µM; on KDR kinase, 0.55 µM; in assay [1], 0.012 µM.

For `CC(C)(C)c1cc(NC(=O)NC2CCCCC2)n(-c2ccc3c(c2)CCC(=O)N3)n1` [Example 318, 1-(3-t-butyl-1-(2-oxo-1,2,3,4-tetrahydroquinolin-6-yl)-1H-pyrazol-5-yl)-3-cyclohexylurea], the figures for the IC50 at B-Raf(V599E) kinase and at KDR kinase were 0.029 µM and 10.1 µM, respectively.

Regarding `CC(C)(C)c1cc(NC(=O)Nc2cccc(Cl)c2Cl)n(-c2cccc(Cn3c(=O)[nH]n(-c4ccccc4)c3=O)c2)n1` [Example 273, 1-(3-t-butyl-1-{3-[(3,5-dioxo-1-phenyl-1,2,4-triazolidin-4-yl)methyl]phenyl}-1H-pyrazol-5-yl)-3-(2,3-dichlorophenyl)urea], the figures for the IC50 (against B-Raf(V599E) kinase; at KDR kinase; in assay [1]) were 0.0087 µM, 1.7 µM and 0.034 µM, respectively.

For `CC(C)(C)c1cc(NC(=O)Nc2cc(F)cc(F)c2F)n(-c2cc(CNC(N)=O)c3ccccc3c2)n1` [Example 296], the IC50 at B-Raf(V599E) kinase is 0.003 µM; on KDR kinase it was 0.2 µM.

Source of the values: patent US8163756B2 (priority 2004, dated 2012).
